Active and inactive are the calls of the source. The calls are words filed in the database; no cut-off is given here.
Molecular target: T1, Succinate-semialdehyde dehydrogenase, mitochondrial (Homo sapiens) (UniProt P51649)
T1 sequence (whole entry): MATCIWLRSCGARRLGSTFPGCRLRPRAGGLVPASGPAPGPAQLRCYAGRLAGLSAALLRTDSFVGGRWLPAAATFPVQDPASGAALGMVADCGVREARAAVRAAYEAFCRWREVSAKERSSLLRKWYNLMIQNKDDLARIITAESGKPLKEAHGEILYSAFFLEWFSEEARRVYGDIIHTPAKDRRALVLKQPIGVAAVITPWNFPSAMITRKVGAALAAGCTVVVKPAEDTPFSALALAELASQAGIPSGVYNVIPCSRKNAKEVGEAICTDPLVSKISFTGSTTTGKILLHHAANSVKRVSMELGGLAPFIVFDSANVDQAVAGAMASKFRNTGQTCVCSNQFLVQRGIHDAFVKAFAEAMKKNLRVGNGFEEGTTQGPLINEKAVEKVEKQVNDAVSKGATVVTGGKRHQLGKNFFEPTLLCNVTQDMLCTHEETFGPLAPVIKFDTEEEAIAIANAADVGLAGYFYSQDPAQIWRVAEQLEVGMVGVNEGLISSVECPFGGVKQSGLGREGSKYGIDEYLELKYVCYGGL
Test: Effect on human ALDH5A1 at 20 uM preincubated for 2 mins with NAD+ followed by aldehyde substrate addition

Q: With `CC(C)CCn1c(CN2CCN(C(=O)c3ccco3)CC2)nc2c1c(=O)n(C)c(=O)n2C` as the compound, how does the Activity read?
A: The Activity was “inactive”.

Source: ChEMBL document CHEMBL3414499, “Characterization of two distinct structural classes of selective aldehyde dehydrogenase 1A1 inhibitors” (J Med Chem, 2015)
